In article PMC7180572, “5-Alkylamino-N-phenylpyrazine-2-carboxamides: Design, Preparation, and Antimycobacterial Evaluation” (Molecules, 2020):
Converted amounts (≈) assume the structure as drawn. “And” between values parts separate entries of the source, which are not always exact repeats. Equal entries are not always repeated. Where two headings read alike, the source gives them in different places.

Assays:
[1] = tested on: Mycobacterium aurum DSM 43999 (ATCC 23366); test: Microdilution broth, modified Microplate Alamar Blue Assay, whole cell growth inhibition; type: cell-based; conditions: Mycolicibacterium aurum, read-out: MIC Mycobacterium aurum
[2] = tested on: Staphylococcus aureus methicillin resistant ATCC 43300, CCM 4750; test: microbe, parasite or virus in culture; type: cell-based; conditions: ATCC 43300 / CCM 4750 / MRSA, read-out: MIC MRSA
[3] = tested on: Mycobacterium smegmatis DSM 43465 (ATCC 607); test: Microdilution broth, modified Microplate Alamar Blue Assay, whole cell growth inhibition; type: cell-based; conditions: Mycolicibacterium smegmatis, read-out: MIC Mycobacterium smegmatis
[4] = tested on: Klebsiella pneumoniae ATCC 10031, CCM 4415; test: Antibacterial microdilution broth method (EUCAST)
[5] = tested on: Pseudomonas aeruginosa ATCC 27853, CCM 3955; test: Antibacterial microdilution broth method (EUCAST); type: cell-based; conditions: read-out: MIC PA
[6] = tested on: Aspergillus fumigatus ATCC 204305; test: Antifungal microdilution broth method (EUCAST); type: cell-based; conditions: read-out: MIC AF
[7] = tested on: Candida tropicalis ATCC 750, CCM 8264; test: Antifungal microdilution broth method (EUCAST); type: cell-based; conditions: read-out: MIC CT
[8] = tested on: Candida krusei ATCC 6258, CCM 8271; test: Antifungal microdilution broth method (EUCAST); type: cell-based; conditions: Pichia kudriavzevii, read-out: MIC CK
[9] = tested on: Escherichia coli ATCC 25922, CCM 3954; test: Antibacterial microdilution broth method (EUCAST); type: cell-based; conditions: read-out: MIC EC
[10] = tested on: Trichophyton interdigitale ATCC 9533, CCM 8377; test: Antifungal microdilution broth method (EUCAST); type: cell-based; conditions: read-out: MIC TI
[11] = tested on: Staphylococcus aureus spp.aureus ATCC 29213, CCM 4223; test: Antibacterial microdilution broth method (EUCAST); type: cell-based; conditions: read-out: MIC SA
[12] = tested on: HepG2 cells; test: HepG2 cytotoxicity, CellTiter 96 (MTS) assay; type: cell-based, human; conditions: for IC50: Homo sapiens, HepG2, 24 h, read-out: HepG2 IC50
[13] = tested on: Staphylococcus epidermidis ATCC 12228, CCM 4418; test: Antibacterial microdilution broth method (EUCAST); type: cell-based; conditions: read-out: MIC SE
[14] = tested on: Aspergillus flavus CCM 8363; test: Antifungal microdilution broth method (EUCAST); type: cell-based; conditions: read-out: MIC AFla
[15] = tested on: Absidia corymbifera CCM 8077 (Lichtheimia corymbifera); test: Antifungal microdilution broth method (EUCAST); type: cell-based; conditions: read-out: MIC AC
[16] = tested on: Candida albicans ATCC 24433, CCM 8320; test: Antifungal microdilution broth method (EUCAST); type: cell-based; conditions: read-out: MIC CA
[17] = tested on: Enterococcus faecalis ATCC 29212, CCM 4224; test: Antibacterial microdilution broth method (EUCAST); type: cell-based; conditions: read-out: MIC EF
[18] = tested on: Acinetobacter baumanii ATCC 19606, DSM 30007; test: Antibacterial microdilution broth method (EUCAST); type: cell-based; conditions: Acinetobacter baumannii
[19] = tested on: Candida parapsilosis ATCC 22019, CCM 8260; test: Antifungal microdilution broth method (EUCAST); type: cell-based; conditions: Lodderomyces parapsilosis, read-out: MIC CP
[20] = tested on: Mycobacterium tuberculosis H37Ra ITM-M006710 (ATCC 9431); test: Microdilution broth, modified Microplate Alamar Blue Assay, whole cell growth inhibition; type: cell-based; conditions: Mycobacterium tuberculosis, read-out: MIC Mtb H37Ra
[21] = in vitro, Middlebrook 7H9 broth, resazurin

| SMILES | MIC [1] [µg/mL] | MIC ([2]; 24 h) [µM] | MIC ([2]; 48 h) [µM] | MIC [3] [µg/mL] | MIC KP ([4]; 24h) [µM] | MIC KP ([4]; 48h) [µM] | MIC ([5]; 72 h) [µM] | MIC ([5]; 120 h) [µM] | MIC ([6]; ATCC204305, 24 h) [µM] | MIC ([6]; ATCC204305, 48 h) [µM] | MIC ([7]; 24 h) [µM] | MIC ([7]; 48 h) [µM] | MIC ([8]; 24 h) [µM] | MIC ([8]; 48 h) [µM] | MIC ([9]; 24 h) [µM] | MIC ([9]; 48 h) [µM] | MIC ([10]; 72 h) [µM] | MIC ([10]; 120 h) [µM] | MIC ([11]; 24 h) [µM] | MIC ([11]; 48 h) [µM] | further results |
| --- | --- | --- | --- | --- | --- | --- | --- | --- | --- | --- | --- | --- | --- | --- | --- | --- | --- | --- | --- | --- | --- |
| CCCCCCCCNc1cnc(C(=O)Nc2cccc(O)c2)cn1 [Compound 2f, N-(3-hydroxyphenyl)-5-(octylamino)pyrazine-2-carboxamide] | ≥ 500 | > 125 | > 125 | 250 (≈ 730 µM) | > 125 | > 125 | > 125 | > 125 | > 125 | > 125 | > 125 | > 125 | > 125 | > 125 | > 125 | > 125 | > 125 | > 125 | > 125 | > 125 | IC50 [12]: > 50 µM; melting point: 223 to 225.9 °C; MIC ([13]; 24 h): > 125 µM; MIC ([13]; 48 h): > 125 µM; MIC ([14]; CCM8363, 24 h): > 125 µM; MIC ([14]; CCM8363, 48 h): > 125 µM; MIC ([15]; CCM8077, 24 h): > 125 µM; MIC ([15]; CCM8077, 48 h): > 125 µM; MIC ([16]; 24 h): > 125 µM; MIC ([16]; 48 h): > 125 µM; MIC ([17]; 24 h): > 125 µM; MIC ([17]; 48 h): > 125 µM; MIC ([18]; 24h): > 125 µM; MIC ([18]; 48h): > 125 µM; MIC ([19]; 24 h): > 125 µM; MIC ([19]; 48 h): > 125 µM; MIC [20, 21]: ≥ 500 µg/mL |
| CCCCCCCCNc1cnc(C(=O)Nc2cccc(C(F)(F)F)c2)cn1 [Compound 1f, 5-(Octylamino)-N-(3-(trifluoromethyl)phenyl)pyrazine-2-carboxamide] | ≥ 500 | > 500 | > 500 | ≥ 500 | > 500 | > 500 | > 500 | > 500 | > 500 | > 500 | > 500 | > 500 | > 500 | > 500 | > 500 | > 500 | > 500 | > 500 | > 500 | > 500 | IC50 [12]: 66.2 µM; melting point: 135 to 136 °C; MIC ([13]; 24 h): > 500 µM; MIC ([13]; 48 h): > 500 µM; MIC ([14]; CCM8363, 24 h): > 500 µM; MIC ([14]; CCM8363, 48 h): > 500 µM; MIC ([15]; CCM8077, 24 h): > 500 µM; MIC ([15]; CCM8077, 48 h): > 500 µM; MIC ([16]; 24 h): > 500 µM; MIC ([16]; 48 h): > 500 µM; MIC ([17]; 24 h): > 500 µM; MIC ([17]; 48 h): > 500 µM; MIC ([18]; 24h): > 500 µM; MIC ([18]; 48h): > 500 µM; MIC ([19]; 24 h): > 500 µM; MIC ([19]; 48 h): > 500 µM; MIC [20, 21]: ≥ 500 µg/mL |
| CCCCNc1cnc(C(=O)Nc2ccc(C)cc2)cn1 [Compound 4b, 5-(Butylamino)-N-(p-tolyl)pyrazine-2-carboxamide] | ≥ 250 | > 125 | > 125 | ≥ 250 | > 125 | > 125 | > 125 | > 125 | > 125 | > 125 | > 125 | > 125 | > 125 | > 125 | > 125 | > 125 | > 125 | > 125 | > 125 | > 125 | IC50 [12]: > 50 µM; melting point: 162.6 to 163.6 °C; MIC ([13]; 24 h): > 125 µM; MIC ([13]; 48 h): > 125 µM; MIC ([14]; CCM8363, 24 h): > 125 µM; MIC ([14]; CCM8363, 48 h): > 125 µM; MIC ([15]; CCM8077, 24 h): > 125 µM; MIC ([15]; CCM8077, 48 h): > 125 µM; MIC ([16]; 24 h): > 125 µM; MIC ([16]; 48 h): > 125 µM; MIC ([17]; 24 h): > 125 µM; MIC ([17]; 48 h): > 125 µM; MIC ([18]; 24h): > 125 µM; MIC ([18]; 48h): > 125 µM; MIC ([19]; 24 h): > 125 µM; MIC ([19]; 48 h): > 125 µM; MIC [20, 21]: ≥ 250 µg/mL |
| CCCNc1cnc(C(=O)Nc2ccc(CC)cc2)cn1 [Compound 5a, N-(4-ethylphenyl)-5-(propylamino)pyrazine-2-carboxamide] | ≥ 500 | > 125 | > 125 | 7.81 (≈ 27.5 µM) | > 125 | > 125 | > 125 | > 125 | > 125 | > 125 | > 125 | > 125 | > 125 | > 125 | > 125 | > 125 | > 125 | > 125 | > 125 | > 125 | IC50 [12]: 495 µM; SI, selectivity index ([12]; IC50 (HepG2)/MIC against Mtb H37Ra (in µM)): 18 and 18.01; melting point: 141.8 to 142.8 °C; MIC ([13]; 24 h): > 125 µM; MIC ([13]; 48 h): > 125 µM; MIC ([14]; CCM8363, 24 h): > 125 µM; MIC ([14]; CCM8363, 48 h): > 125 µM; MIC ([15]; CCM8077, 24 h): > 125 µM; MIC ([15]; CCM8077, 48 h): > 125 µM; MIC ([16]; 24 h): > 125 µM; MIC ([16]; 48 h): > 125 µM; MIC ([17]; 24 h): > 125 µM; MIC ([17]; 48 h): > 125 µM; MIC ([18]; 24h): > 125 µM; MIC ([18]; 48h): > 125 µM; MIC ([19]; 24 h): > 125 µM; MIC ([19]; 48 h): > 125 µM; MIC ([20]; MIC converted to µM): 27.5 µM; MIC [20, 21]: 7.81 µg/mL |
